Structures can show the parent of a compound that is named as a salt. Where two headings read alike, the source gives them in different places. Bounds are passed on as bounds.

Broadly, the Ki is the equilibrium dissociation constant of an inhibitor or competing ligand from its target. A word on the IC50: it is the midpoint of a concentration-inhibition curve. A higher IC50 goes with weaker potency in that assay.

Type in all cases: biochemical
The target of one experiment is MASP-2 (Homo sapiens (Human), UniProt O00187). The experiment in a line: MASP-2 inhibition (Ki).
Chain of MASP-2 (O00187 16-686): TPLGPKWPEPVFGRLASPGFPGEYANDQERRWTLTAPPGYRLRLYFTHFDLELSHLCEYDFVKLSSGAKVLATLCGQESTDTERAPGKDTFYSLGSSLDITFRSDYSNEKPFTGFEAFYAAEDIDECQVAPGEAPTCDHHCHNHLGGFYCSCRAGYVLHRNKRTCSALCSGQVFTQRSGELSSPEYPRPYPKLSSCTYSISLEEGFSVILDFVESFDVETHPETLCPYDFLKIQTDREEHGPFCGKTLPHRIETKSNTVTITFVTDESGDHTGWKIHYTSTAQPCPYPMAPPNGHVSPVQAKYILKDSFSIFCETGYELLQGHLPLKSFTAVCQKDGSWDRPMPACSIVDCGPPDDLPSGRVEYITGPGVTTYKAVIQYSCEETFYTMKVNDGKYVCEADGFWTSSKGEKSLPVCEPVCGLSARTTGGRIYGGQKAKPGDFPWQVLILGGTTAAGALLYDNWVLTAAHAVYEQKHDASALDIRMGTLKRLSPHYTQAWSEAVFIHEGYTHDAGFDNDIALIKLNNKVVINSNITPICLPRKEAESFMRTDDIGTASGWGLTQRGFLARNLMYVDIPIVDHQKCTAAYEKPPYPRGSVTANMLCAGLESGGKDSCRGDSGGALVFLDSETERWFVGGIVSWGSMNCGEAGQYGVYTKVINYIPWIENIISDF
The target in a further experiment is Thrombin (Homo sapiens (Human), UniProt P00734). The experiment in a line: Thrombin inhibition (Ki).
For the next experiment, the target named is MASP-2 (CCP1-CCP2-SP) (Homo sapiens (Human), UniProt O00187). The experiment in a line: biochemical. Conditions: for Ki: read-out: MASP-2 Ki; for MASP-2 vs. thrombin selectivity: selectivity for MASP-2 inhibition versus thrombin.
Chain of MASP-2 (CCP1-CCP2-SP) (O00187 445-686): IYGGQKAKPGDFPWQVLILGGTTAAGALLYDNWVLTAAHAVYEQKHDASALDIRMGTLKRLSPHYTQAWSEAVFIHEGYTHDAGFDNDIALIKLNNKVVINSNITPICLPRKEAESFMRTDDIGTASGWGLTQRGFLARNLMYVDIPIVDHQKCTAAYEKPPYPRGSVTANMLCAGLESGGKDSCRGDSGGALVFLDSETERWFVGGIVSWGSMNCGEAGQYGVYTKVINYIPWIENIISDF
Another experiment addresses mMASP-2 (Mus musculus (Mouse), UniProt Q91WP0). The experiment in a line: Enzymatic inhibition of mMASP-2. Conditions: read-out: mMASP-2 Ki.
A further experiment concerns the target human α-thrombin (Homo sapiens (Human), UniProt P00734). The experiment is described as follows: Enzymatic assay for thrombin (Boc-VPR-AMC substrate). Conditions: read-out: Thrombin Ki.
The test system of another experiment is Lectin Pathway. The experiment is described as follows: Lectin pathway activation assay in human serum (mannan-coated ELISA, C3c detection). Conditions: 1% human serum. Background: ELISA stands for enzyme-linked immunosorbent assay.

Chain of mMASP-2 (Q91WP0 20-685): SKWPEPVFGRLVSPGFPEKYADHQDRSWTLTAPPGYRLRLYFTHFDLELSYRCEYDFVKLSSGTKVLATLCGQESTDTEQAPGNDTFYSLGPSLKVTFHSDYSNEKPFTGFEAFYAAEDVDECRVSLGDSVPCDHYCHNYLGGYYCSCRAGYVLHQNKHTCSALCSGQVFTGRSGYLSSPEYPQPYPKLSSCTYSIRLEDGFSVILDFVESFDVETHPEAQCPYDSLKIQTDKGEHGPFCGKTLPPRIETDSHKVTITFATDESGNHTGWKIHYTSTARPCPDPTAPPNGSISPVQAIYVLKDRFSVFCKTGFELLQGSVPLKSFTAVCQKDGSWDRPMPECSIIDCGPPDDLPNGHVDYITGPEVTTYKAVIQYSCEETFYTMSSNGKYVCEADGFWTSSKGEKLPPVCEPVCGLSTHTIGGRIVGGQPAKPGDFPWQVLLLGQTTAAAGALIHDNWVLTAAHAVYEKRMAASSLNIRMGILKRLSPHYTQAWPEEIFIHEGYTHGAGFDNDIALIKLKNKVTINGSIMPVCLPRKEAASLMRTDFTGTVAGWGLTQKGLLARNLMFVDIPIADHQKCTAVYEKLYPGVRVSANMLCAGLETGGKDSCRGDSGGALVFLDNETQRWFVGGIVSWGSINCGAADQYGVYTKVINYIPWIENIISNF

As to `Cc1ccccc1C1=N/C(=C\c2ccco2)C(=O)O1` [compound 1], the Ki at MASP-2 and on Thrombin (read-out: Thrombin Ki) was less than 10 µM throughout.

With `Cc1ccc(/C=C2\N=C(c3ccccc3F)OC2=O)o1` [compound 2], the Ki was less than 10 µM at MASP-2 and 25 to 100 µM at Thrombin (read-out: Thrombin Ki).

In the case of `COc1ccc(/C=C2\N=C(c3ccccc3OC)OC2=O)cc1OC` [compound 3], the Ki at MASP-2 is 25 to 100 µM; on Thrombin (read-out: Thrombin Ki) it was less than 10 µM.

`COc1ccccc1C1=N/C(=C\c2cc(OC)c(OC)c(OC)c2)C(=O)O1` [compound 4]: the figures for the Ki at MASP-2 and at Thrombin (read-out: Thrombin Ki) were less than 10 µM and 25 to 100 µM, respectively.

With `COc1ccccc1C1=N/C(=C\c2cccs2)C(=O)O1` [compound 5], the Ki at MASP-2 lay within 10 to 25 µM.

With `O=C1OC(/C=C/c2ccccc2)=NC/1=C\c1ccco1` [compound 6], the Ki at MASP-2 is less than 10 µM; on Thrombin (read-out: Thrombin Ki) it was 25 to 100 µM.

Regarding `O=C(NNC(=O)c1cc2ccccc2cc1O)c1ccco1` [compound 7], the Ki at MASP-2 and at Thrombin (read-out: Thrombin Ki) was less than 10 µM throughout.

As to `Cc1c(C(=O)Nc2ccccc2C(=O)O)cccc1[N+](=O)[O-]` [compound 9], the Ki on MASP-2 and at Thrombin (read-out: Thrombin Ki) was less than 10 µM in each case.

As to `O=c1oc(-c2cccs2)nc2ccccc12` [compound 10], the values for the Ki at MASP-2 and on Thrombin (read-out: Thrombin Ki) were less than 10 µM and 25 to 100 µM, respectively.

As to `O=c1oc(-c2ccco2)nc2cc(Cl)ccc12` [compound 11], the Ki on MASP-2 is less than 10 µM. Besides, on Thrombin, the “Thrombin Ki (μM)” value is listed as “No Activity”.

With `Cc1cc(=O)oc2cc(OC(=O)c3ccco3)ccc12` [compound 12], the inhibition constant Ki on MASP-2 and at Thrombin (read-out: Thrombin Ki) was less than 10 µM each time.

Turning to `CCOC(=O)c1ccc2c(c1)C1C=CCC1C(C(=O)O)N2` (centres unmarked) [compound 13], the inhibitory constant (Ki) at MASP-2 lay within 25 to 100 µM. For the same molecule, the “Thrombin Ki (μM)” value at Thrombin was “No activity”.

For `O=c1oc(-c2ccccc2[N+](=O)[O-])nc2ccccc12` [compound 14], the Ki at MASP-2 and on Thrombin (read-out: Thrombin Ki) was less than 10 µM each time.

Molecule `COc1cccc2c1NC(C(=O)O)C1CC=CC21` (centres unmarked) [compound 15] registered an inhibition constant (Ki) on MASP-2 of 25 to 100 µM. Besides, the “Thrombin Ki (μM)” value at Thrombin is recorded as “No activity”.

For `O=C(O)c1cc(N2N=C(C(F)(F)F)/C(=C\C=C\c3ccco3)C2=O)ccc1Cl` [compound 16], at MASP-2, the inhibition constant (Ki) is 25 to 100 µM. Further, on Thrombin, the “Thrombin Ki (μM)” value is listed as “No activity”.

Consider `Cc1c(/N=C/c2ccc(OC(=O)c3ccccn3)cc2)c(=O)n(-c2ccccc2)n1C` [compound 17], for which the Ki was less than 10 µM at MASP-2 and 25 to 100 µM at Thrombin (read-out: Thrombin Ki).

For the molecule `Cc1cccc2c(=O)oc(-c3ccccc3Cl)nc12` [compound 18], the inhibition constant Ki at MASP-2 and at Thrombin (read-out: Thrombin Ki) was less than 10 µM in each case.

`O=c1oc(-c2ccco2)nc2scc(-c3cccs3)c12` [compound 19]: the Ki on MASP-2 is less than 10 µM; on Thrombin (read-out: Thrombin Ki), 25 to 100 µM.

`O=C(Oc1ccc([N+](=O)[O-])cc1)c1ccc(Br)o1` [compound 20] had a Ki on MASP-2 of less than 10 µM. On Thrombin, the “Thrombin Ki (μM)” value is listed as “No Activity”.

Regarding `O=Cc1ccc(OC(=O)c2ccco2)cc1` [compound 21], the Ki on MASP-2 and on Thrombin (read-out: Thrombin Ki) was less than 10 µM in each case.

On MASP-2, `O=C(O)C1Nc2c(O)cc(Cl)c([N+](=O)[O-])c2C2C=CCC12` (centres unmarked) [compound 22] showed an inhibition constant (Ki) of 10 to 25 µM. Also, the “Thrombin Ki (μM)” value at Thrombin is “No Activity”.

`CCCc1nnc(NC(CC)OC(=O)c2cc(C)nc3ccccc23)s1` (centres unmarked) [compound 23] registered a Ki at MASP-2 of less than 10 µM. For the same molecule, the “Thrombin Ki (μM)” value on Thrombin is “No Activity”.

With `COC(=O)c1cn(C(=O)c2cc(OC)cc(OC)c2)nc1N` [compound 24], the Ki was less than 10 µM on MASP-2 and 10 to 25 µM on Thrombin (read-out: Thrombin Ki).

As for `CN(C)C(=S)Nc1ccccc1C(=O)O` [compound 25], the inhibition constant Ki on MASP-2 is 25 to 100 µM. Besides, the “Thrombin Ki (μM)” value at Thrombin is “No activity”.

On to `O=c1[nH]c2ccccc2c(=O)o1` [compound 26], for which the Ki on MASP-2 was less than 10 µM; on Thrombin, 25 to 100 µM.

Turning to `O=C(Oc1cccc([N+](=O)[O-])c1)c1ccco1` [compound 27], the Ki at MASP-2 is less than 10 µM; on Thrombin (read-out: Thrombin Ki), 25 to 100 µM.

`O=C(O)c1ccc2c(c1)C1C=CCC1C(C(=O)O)N2` (centres unmarked) [compound 28] showed a Ki on MASP-2 of 25 to 100 µM. Further, the “Thrombin Ki (μM)” value at Thrombin is on record as “No activity”.

As to `O=C1NC(=S)NC(=O)C1=C/C=C/c1ccco1` [compound 29], the inhibition constant Ki was less than 10 µM at MASP-2 and 25 to 100 µM at Thrombin (read-out: Thrombin Ki).

As to `CC(=O)c1ccc2c(c1)C1C=CCC1C(C(=O)O)N2` (centres unmarked) [compound 30], at MASP-2, the Ki lay within 25 to 100 µM. Further, the “Thrombin Ki (μM)” value on Thrombin is reported as “No activity”.

Consider `COc1cc(/C=N/NC(=O)Cc2nnc(N)s2)ccc1OC(=O)c1ccco1` [compound 31], for which the Ki on MASP-2 was less than 10 µM. For the same molecule, the “Thrombin Ki (μM)” value on Thrombin is recorded as “No activity”.

In turn, `O=C(c1cccc2ccccc12)n1cccn1` [compound 32] yielded a Ki at MASP-2 of less than 10 µM. Further, the “Thrombin Ki (μM)” value on Thrombin is given as “No activity”.

With `CC(=O)Nc1ccc(OC(=O)c2ccccc2NC(=O)c2ccccc2Br)cc1` [compound 33], the inhibition constant (Ki) at MASP-2 and on Thrombin (read-out: Thrombin Ki) was less than 10 µM each time.

With `Cc1c(/N=C/c2ccc(OC(=O)c3ccco3)cc2)c(=O)n(-c2ccccc2)n1C` [compound 34], the inhibitory constant (Ki) on MASP-2 is less than 10 µM; at Thrombin (read-out: Thrombin Ki), 25 to 100 µM.

Molecule `O=C1c2ccccc2C(=O)N1Oc1ccc(C(F)(F)F)cc1[N+](=O)[O-]` [compound 35] showed a Ki on MASP-2 of 25 to 100 µM.

For the molecule `O=C(Nc1nc[nH]n1)c1cccc(I)c1` [compound 36], the Ki on MASP-2 is less than 10 µM; at Thrombin (read-out: Thrombin Ki), 25 to 100 µM.

Take `C/C=C/C=C/C(=O)Nc1ccccc1C(=O)O` [compound 37]: the Ki at MASP-2 is 25 to 100 µM. Moreover, at Thrombin, the “Thrombin Ki (μM)” value is recorded as “No activity”.

Take `O=C(O)/C=C/C=C/c1ccco1` [compound 38]: at MASP-2, the Ki lay within 10 to 25 µM.

`Cc1ccc(S(=O)(=O)n2nc(OC(=O)c3ccco3)cc2N)cc1` [compound 39]: the Ki was less than 10 µM at MASP-2 and 10 to 25 µM at Thrombin (read-out: Thrombin Ki).

For `COc1ccc(S(=O)(=O)n2nc(OC(=O)c3ccco3)cc2N)cc1` [compound 40], the inhibition constant Ki on MASP-2 and at Thrombin (read-out: Thrombin Ki) was less than 10 µM each time.

`CC(=O)c1ccc(OC(=O)c2ccco2)cc1` [compound 41] yielded a Ki on MASP-2 of less than 10 µM. Moreover, at Thrombin, the “Thrombin Ki (μM)” value is “No activity”.

In the case of `Cc1sc2nc(-c3ccccc3F)oc(=O)c2c1C` [compound 42], the Ki at MASP-2 is less than 10 µM; on Thrombin (read-out: Thrombin Ki), 25 to 100 µM.

As to `C[C@H](NC(=O)[C@H]1C[C@H](Cc2ccccc2)CN1)C(=O)NCc1cnc2[nH]cc(Cl)c2c1` [compound 1334, (2R,4S)-4-Benzyl-N-((S)-1-(((3-chloro-1H-pyrrolo[2,3-b]pyridin-5-yl)methyl)amino)-1-oxopropan-2-yl)pyrrolidine-2-carboxamide Di-hydrochloride], at MASP-2 (MASP-2 vs thrombin), the “selectivity for MASP-2 over thrombin” value is “MASP-2 selective”. Further, the inhibition constant Ki on MASP-2 (CCP1-CCP2-SP), at mMASP-2 and at human α-thrombin was less than 0.5 µM throughout. In addition, the “MASP-2 vs. thrombin selectivity” value on MASP-2 (CCP1-CCP2-SP) is “−− (<1.0-fold)”.

In the case of `Cc1cnc(NCCc2ccccc2)c(=O)n1CC(=O)NCc1ccc2nc(N)[nH]c2c1` [compound 1492, N-((2-Amino-1H-benzo[d]imidazol-6-yl)methyl)-2-(6-methyl-2-oxo-3-(phenethylamino)pyrazin-1(2H)-yl)acetamide Trifluoroacetamide salt], the Ki at MASP-2 (CCP1-CCP2-SP), at mMASP-2 and at human α-thrombin was less than 0.5 µM throughout. In addition, the “MASP-2 vs. thrombin selectivity” value on MASP-2 (CCP1-CCP2-SP) is given as “** (≥5.0 to <25-fold)”. The molecule also yielded an IC50 in the experiment with Lectin Pathway of 0.05 to 0.5 µM.

The values are drawn from patent US11584714B2 (priority 2018, dated 2023).
